From PMC9250296 (Journal of the American Chemical Society, 2021) come the findings set out here.

Numbered stars: 1 amine (or outer) side, 2 acyl side, 3 side chain; on linkers, the order of the positions; unused ones are H or OH. Bridge positions count the residues as written; N and C are the ends. Square brackets hold non-standard residues; d marks the D form. Peptide text beside a SMILES is read from it. * marks the point of attachment. X1 = O=C([C@@H]1C[C@@H](SCc2cccc(C[*:3])c2)CN1[*:1])[*:2]; X2 = C=CCS[C@@H]1C[C@@H](C(=O)[*:2])N([*:1])C1; Ac3c = NC1(C(=O)O)CC1; Allyl = C=CC*

The nature of series [1]: HeLa cell lysate stability assay. As to conditions: for half-life / remaining at 4 h: human; for primary degradation products in HeLa cell lysate: after 24 hours, mass spectrometry.
A short description of the next series: CD thermal melts. It is filed as physicochemical. As to conditions: CD thermal melt, Trp-Trp exciton coupling band at 228 nm, aqueous solution.
A short description of a further series: in vitro. As to conditions: human, cells or culture medium.

The half-life is the time needed for the level to fall by half in the phase considered. Lower therefore signals fast loss. In series [1], `CC(=O)N[C@H](C(=O)N[C@@H](Cc1c[nH]c2ccccc12)C(=O)N[C@H](Cc1ccc(O)cc1)C(=O)N[C@H]1CSCc2cccc(c2)CS[C@@H]2C[C@@H](C(=O)NCC(=O)N[C@@H](Cc3c[nH]c4ccccc34)C(=O)N[C@H](C(N)=O)[C@@H](C)O)N(C2)C(=O)CNC(=O)C2(CC2)NC(=O)[C@H]2CCCN2C(=O)[C@H]([C@@H](C)O)NC1=O)[C@@H](C)O` [Δ4MP-m] (Ac-TW[dY]CT[dP][Ac3c]G[X1]GWT-NH2; thioether 4-9) had a half-life of 21 h.

Usually fraction remaining stands for the share of the starting amount still present when the sample was taken. Regarding `C[C@@H](O)[C@H](NC(=O)[C@H](Cc1c[nH]c2ccccc12)NC(=O)CNC(=O)[C@@H]1C[C@@H]2CN1C(=O)CNC(=O)C1(CC1)NC(=O)[C@H]1CCCN1C(=O)[C@H]([C@@H](C)O)NC(=O)[C@@H](NC(=O)[C@@H](Cc1ccc(O)cc1)NC(=O)[C@H](Cc1c[nH]c3ccccc13)NC(=O)[C@@H](NC(=O)[C@@H](N)CCCCN)[C@@H](C)O)CSCc1cccc(c1)CS2)C(=O)N[C@@H](CCC(=O)O)C(=O)O` [4MP-m] (H-KTW[dY]CT[dP][Ac3c]G[X1]GWTE-OH; thioether 5-10; N-terminus and C-terminus assumed), in series [1], the “primary degradation products in HeLa cell lysate” value is given as “intact except for the two N-terminal amino acids” and the fraction remaining at 4 h was ~7%. For the same molecule, the “T50 (temperature at which the peptide retains 50% structure)” value in the series “CD thermal melts” came out at 58.5 °C.

With `C=CCSC[C@H](NC(=O)[C@@H](Cc1ccc(O)cc1)NC(=O)[C@H](Cc1c[nH]c2ccccc12)NC(=O)[C@@H](NC(=O)[C@@H](N)CCCCN)[C@@H](C)O)C(=O)N[C@H](C(=O)N1CCC[C@@H]1C(=O)NC1(C(=O)NCC(=O)N2C[C@H](SCC=C)C[C@H]2C(=O)NCC(=O)N[C@@H](Cc2c[nH]c3ccccc23)C(=O)N[C@H](C(=O)N[C@@H](CCC(=O)O)C(=O)O)[C@@H](C)O)CC1)[C@@H](C)O` [4MP-a] (H-KTW[dY]C(Allyl)T[dP][Ac3c]G[X2]GWTE-OH; N-terminus and C-terminus assumed), in series [1], the “primary degradation products in HeLa cell lysate” value is “intact except for the two N-terminal amino acids” and the fraction remaining at 4 h is ~22%. In addition, the “T50 (temperature at which the peptide retains 50% structure)” value in the series “CD thermal melts” came to 50.8 °C.

For `CC(=O)N[C@H](C(=O)N[C@@H](Cc1c[nH]c2ccccc12)C(=O)N[C@@H](CC(N)=O)C(=O)N1CCC[C@H]1C(=O)N[C@@H](C)C(=O)N[C@H](C(=O)NCC(=O)N[C@@H](CCCCN)C(=O)N[C@@H](Cc1c[nH]c2ccccc12)C(=O)N[C@H](C(N)=O)[C@@H](C)O)[C@@H](C)O)[C@@H](C)O` [ΔHP7] (Ac-TWNPATGKWT-NH2; N-terminus and C-terminus assumed), the amount remaining at 2 h in the series “in vitro” is ~19%.

Consider `C[C@H](NC(=O)[C@@H]1CCCN1C(=O)[C@H](CC(N)=O)NC(=O)[C@H](Cc1c[nH]c2ccccc12)NC(=O)[C@@H](NC(=O)[C@@H](N)CCCCN)[C@@H](C)O)C(=O)N[C@H](C(=O)NCC(=O)N[C@@H](CCCCN)C(=O)N[C@@H](Cc1c[nH]c2ccccc12)C(=O)N[C@H](C(=O)N[C@@H](CCC(=O)O)C(=O)O)[C@@H](C)O)[C@@H](C)O` [HP7, reference compound] (H-KTWNPATGKWTE-OH; N-terminus and C-terminus assumed), for which the “T50 (temperature at which the peptide retains 50% structure)” value in the series “CD thermal melts” came out at 58.7 °C. In addition, in “in vitro”, the fraction remaining at 2 h was ~0%.

The molecule `C=CCSC[C@H](NC(=O)[C@@H](Cc1ccc(O)cc1)NC(=O)[C@H](Cc1c[nH]c2ccccc12)NC(=O)[C@@H](NC(C)=O)[C@@H](C)O)C(=O)N[C@H](C(=O)N1CCC[C@@H]1C(=O)NC1(C(=O)NCC(=O)N2C[C@H](SCC=C)C[C@H]2C(=O)NCC(=O)N[C@@H](Cc2c[nH]c3ccccc23)C(=O)N[C@H](C(N)=O)[C@@H](C)O)CC1)[C@@H](C)O` [Δ4MP-a] (Ac-TW[dY]C(Allyl)T[dP][Ac3c]G[X2]GWT-NH2; N-terminus and C-terminus assumed) gave a half-life in series [1] of 30 h.
